Ends that are not written are not given here.
Experiments:
[1] = test system: S. epidermidis; test: Outer membrane permeabilization (NPN uptake) assay; assay type: cell-based, Staphylococcus epidermidis; conditions: peptides at MIC
Experimental: (§1) FIG. 10. Membrane permeabilization and depolarization assays for several bacterial strains. […] FIG. 10B: Cytoplasmic membrane depolarization assays performed against P. aeruginosa PAO1 and the gut commensal B. fragilis ATCC25285.
(§2) Methods: Membrane depolarization assays. The cytoplasmic membrane depolarization activity of the peptides was determined by measurements of fluorescence of the membrane potential-sensitive dye, DiSC3(5). Briefly, A. baumannii ATCC19606, P. aeruginosa PAO1 and B. fragilis ATCC25285 were grown at 37° C. with agitation until they reached mid-log phase (OD600=0.5). […] Thereafter, the cells (100 μL) were incubated for 15 min with 20 nmol L^−1 of DiSC3(5) until a stable reduction of fluorescence was achieved, indicating the incorporation of the dye into the bacterial membrane. Membrane depolarization was then monitored by observing the change in the fluorescence emission intensity of the membrane potential-sensitive dye, DiSC3(5) (λex=622 nm, λem=670 nm), after the addition of peptides (100 μL solution at MIC values). […] The membrane permeability of the peptides was determined by using the N-phenyl-1-napthylamine (NPN) uptake assay. […] The background fluorescence was recorded at λex=350 nm and λem=420 nm. […]

[2] = test system: A. baumannii ATCC19606; test: Outer membrane permeabilization (NPN uptake) assay; assay type: cell-based, Acinetobacter baumannii; conditions: peptides at MIC, compared to untreated control and polymyxin B
Experimental: (§3) FIG. 3. Synergy, resistance development and mechanism of action studies of encrypted peptides. […] (FIG. 3B) Evolution of resistance by A. baumannii to encrypted peptides derived from the CUB domain (red) or polymyxin B (gray) after 30 days of serial passaging in liquid nutrient broth. Peptides and antibiotics were used at sub-inhibitory concentrations. Cells were passaged every 48 h. […] (FIG. 3D) Cytoplasmic membrane depolarization effects of the encrypted peptides against A. baumannii. (FIG. 3E) NPN assays showing the effect of encrypted peptides derived from the CUB domain and natriuretic peptide on permeabilization of the outer membrane of A. baumannii.
In order to investigate the mode of action of encrypted peptides against bacterial cells, assays were performed to study their effects on the bacterial membrane. First, the ability of encrypted peptides to disrupt and depolarize the bacterial cytoplasmic membrane was assessed […]. 3,3′-dipropylthiadicarbocyanine iodide [DiSC3(5)] was used, a potentiometric fluorophore that accumulates and aggregates in the cytoplasmic membrane, quenching its fluorescence. Upon imbalances of the cytoplasmic membrane transmembrane potential, the fluorophore migrates to the cytoplasm or the outer environment, generating fluorescence. […]
Methods: Membrane depolarization assays. The cytoplasmic membrane depolarization activity of the peptides was determined by measurements of fluorescence of the membrane potential-sensitive dye, DiSC3(5). […] Thereafter, the cells (100 μL) were incubated for 15 min with 20 nmol L^−1 of DiSC3(5) until a stable reduction of fluorescence was achieved, indicating the incorporation of the dye into the bacterial membrane. Membrane depolarization was then monitored by observing the change in the fluorescence emission intensity of the membrane potential-sensitive dye, DiSC3(5) (λex=622 nm, λem=670 nm), after the addition of peptides (100 μL solution at MIC values). […] The membrane permeability of the peptides was determined by using the N-phenyl-1-napthylamine (NPN) uptake assay. […]

[3] = test system: B. fragilis ATCC25285; test: Outer membrane permeabilization (NPN uptake) assay; assay type: cell-based, Bacteroides fragilis; conditions: peptides at MIC
Experimental: as §1, §2

[4] = test system: P. aeruginosa PAO1; test: Outer membrane permeabilization (NPN uptake) assay; assay type: cell-based, Pseudomonas aeruginosa; conditions: peptides at MIC
Experimental: as §1, §2

[5] = test system: A. baumannii; test: Bacterial resistance development assay (serial passaging); assay type: cell-based, Acinetobacter baumannii; conditions: after 26 days of serial passaging at sub-inhibitory concentrations
Experimental: as §3
In any antibiotic discovery effort, it is crucial to assess how readily the molecules identified select for resistance mechanisms in bacteria, as the emergence of resistance has hampered the antibiotic field since its very inception with the discovery of penicillin in 1928^38. To determine whether bacteria become resistant to encrypted peptides, longitudinal resistance assays were performed with peptides derived from the CUB domains 1 and 3 against A. baumannii, using polymyxin B as a control (FIG. 3B).
Methods: Bacterial resistance development assays. The evolution of resistance by A. baumannii cells to encrypted peptides was monitored for 30 days of serial passaging in liquid nutrient broth. […]

| Substance | outer membrane permeabilization (NPN) [1] | outer membrane permeabilization (NPN fluorescence) [2] | outer membrane permeabilization (NPN) [3] | outer membrane permeabilization (NPN) [4] | increase of concentrations needed to kill A. baumannii [5] |
| --- | --- | --- | --- | --- | --- |
| natriuretic peptide: peptide hormone responsible for inducing the excretion of sodium by the kidneys (P01160) (SLRRSSCFGGRMDRIGAQSGLGCNSFRY; ends and bridges not checked; cysteine pairing not given here; UniProt P01160 124-151, looked up) | permeabilized | increased fluorescence | permeabilized | permeabilized | – |
| polymyxin B | – | – | – | – | ≤ 256 fold |
